{"source": "patent US20180028477A1", "about": "“TREATMENT OF CARDIAC REMODELING AND OTHER HEART CONDITIONS” (C & C BIOPHARMA, LLC, priority 2013, published 2018)", "key": {"[1]": {"system": "myocyte apoptosis during TAC", "assay": "Myocyte apoptosis in myocardial tissue after TAC, TUNEL assay (Example 10)", "format": "in vivo, mice", "excerpt": "In parallel samples from the experiment described in Example 4, apoptosis was quantitated in myocardial tissue from sham- and TAC-operated mice in the presence of vehicle or 8MI. Apoptosis was detected following recommended protocol for the commercially available terminal deoxynucleotidyl transferase-mediated dUTP nick-end labeling (TUNEL) assay kit (Cardiotacs, Trevigne, Gaithersburg, Md.)."}, "GATA4": {"system": "GATA4", "assay": "GATA4 acetylation in myocardial lysates, immunoprecipitation/Western (Example 9)", "format": "in vivo", "conditions": "TAC-operated mice, same conditions", "method": "Acetyl-MEF2 and acetyl-GATA4 were determined as described in Example 9 in myocardial lysates of TAC- or sham-operated mice treated with the indicated doses of 8MI, or its vehicle (0), as indicated. […] MEF2 acetylation is increased by TAC and reduced by 8MI. Myocardial lysates were immunoprecipitated with either anti-pan MEF2 or GATA4 antibodies, and probed with antibodies against MEF2, GATA4 or acetyl-lysine (control). The quantified data shown in FIG. 9 is from 3 mice per group and normalized to total acetyl-lysine (western blots are not shown).\nMEF2 acetylation was determined in myocardial tissue from sham- and TAC-operated mice in the presence of vehicle or 8MI, under the experimental conditions described in Example 4. Protein samples were collected in RIPA (Sigma). […] of protein samples were incubated with 5 μg of acetyl lysine or GATA4 antibodies (Upstate, Charlottesville, Va.) or MEF2 antibody (Santa Cruz Biotechnology, Santa Cruz, Calif.) (5 μg). The immune-complexes were captured using TrueBlot sepharose beads and subjected to Western analysis. The immune complexes were resolved on SDS-PAGE and transferred to nitrocellulose membranes. Membranes were blocked with 5% milk in 0.5% TBS-T for 1 hour at room temperature followed by incubation in primary antibody at appropriate dilutions overnight. […]"}}, "note": "“Also recorded” adds a separate entry of the source."}
{"compound": "Nc1ccccc1NC(=O)CCCCCC(=O)Nc1cccc(Br)c1", "note": "[8MI]", "values": [{"measurement": "apoptosis in TAC-operated mice at the highest dose", "setting": "[1]; 40 mg/kg", "value": "reduced to approximately the same level of apoptosis observed for the sham-operated mice"}, {"measurement": "apoptosis in TAC-operated mice", "setting": "[1]; dose range", "value": "reduced in TAC-operated mice by 8MI in a dose-dependent manner; also recorded: prevented myocyte apoptosis during TAC in a dose dependent manner"}, {"measurement": "total and Ac-GATA4 levels", "setting": "GATA4", "value": "no significant change"}]}
